Like-named read-outs stand apart in the source and are kept apart here.
What was measured:
[1] = system: carboxylesterases (CE) in human liver microsomal extracts; test: CE activity; type: biochemical; conditions: 10μM 876
[2] = system: carboxylesterases (hiCE, hCE1) in human liver microsomal extracts; type: biochemical; conditions: for CPT-11 hydrolysis + 876 / Loss in CPT-11 hydrolysis + 876 / Loss in CPT-11 hydrolysis + 876 [%]: 10μM 876

O=S(=O)(Nc1c(F)c(F)c(NS(=O)(=O)c2ccc(Br)cc2)c(F)c1F)c1ccc(Br)cc1 [compound 876, N,N'-(2,3,5,6-tetrafluoro-1,4-phenylene)bis(4-bromobenzenesulfonamide)]
CE activity + 876 ([1]; liver microsomal extract HG03): 3759 ± 84 nmol/mg/min | Loss in CE activity + 876 ([1]; liver microsomal extract HG03): 2816 nmol/mg/min | Loss in CE activity + 876 [%] ([1]; liver microsomal extract HG03): 42.8% | CE activity + 876 ([1]; liver microsomal extract HG74): 4341 ± 152 nmol/mg/min | Loss in CE activity + 876 ([1]; liver microsomal extract HG74): 2866 nmol/mg/min | Loss in CE activity + 876 [%] ([1]; liver microsomal extract HG74): 39.8% | CE activity + 876 ([1]; liver microsomal extract HG93): 2938 ± 87 nmol/mg/min | Loss in CE activity + 876 ([1]; liver microsomal extract HG93): 1790 nmol/mg/min | Loss in CE activity + 876 [%] ([1]; liver microsomal extract HG93): 37.9% | CE activity + 876 ([1]; liver microsomal extract HG95): 3285 ± 242 nmol/mg/min | Loss in CE activity + 876 ([1]; liver microsomal extract HG95): 1840 nmol/mg/min | Loss in CE activity + 876 [%] ([1]; liver microsomal extract HG95): 35.9% | CE activity + 876 ([1]; liver microsomal extract HG103): 2224 ± 202 nmol/mg/min | Loss in CE activity + 876 ([1]; liver microsomal extract HG103): 1482 nmol/mg/min | Loss in CE activity + 876 [%] ([1]; liver microsomal extract HG103): 40.0% | CE activity + 876 ([1]; liver microsomal extract HH13): 672 ± 47 nmol/mg/min | Loss in CE activity + 876 ([1]; liver microsomal extract HH13): 221 nmol/mg/min | Loss in CE activity + 876 [%] ([1]; liver microsomal extract HH13): 24.8% | CE activity + 876 ([1]; liver microsomal extract HH61): 3925 ± 125 nmol/mg/min | Loss in CE activity + 876 ([1]; liver microsomal extract HH61): 1953 nmol/mg/min | Loss in CE activity + 876 [%] ([1]; liver microsomal extract HH61): 33.2% | CE activity + 876 ([1]; liver microsomal extract HH74): 2235 ± 203 nmol/mg/min | Loss in CE activity + 876 ([1]; liver microsomal extract HH74): 1471 nmol/mg/min | Loss in CE activity + 876 [%] ([1]; liver microsomal extract HH74): 39.7% | CE activity + 876 ([1]; liver microsomal extract HK37): 4052 ± 120 nmol/mg/min | Loss in CE activity + 876 ([1]; liver microsomal extract HK37): 2280 nmol/mg/min | Loss in CE activity + 876 [%] ([1]; liver microsomal extract HK37): 36% | CE activity + 876 ([1]; liver microsomal extract SD003): 3434 ± 224 nmol/mg/min | Loss in CE activity + 876 ([1]; liver microsomal extract SD003): 1809 nmol/mg/min | Loss in CE activity + 876 [%] ([1]; liver microsomal extract SD003): 34.5% | CE activity + 876 ([1]; liver microsomal extract SD004): 3460 ± 234 nmol/mg/min | Loss in CE activity + 876 ([1]; liver microsomal extract SD004): 2162 nmol/mg/min | Loss in CE activity + 876 [%] ([1]; liver microsomal extract SD004): 38.5% | CE activity + 876 ([1]; liver microsomal extract SD104): 3493 ± 146 nmol/mg/min | Loss in CE activity + 876 ([1]; liver microsomal extract SD104): 1895 nmol/mg/min | Loss in CE activity + 876 [%] ([1]; liver microsomal extract SD104): 35.2% | CE activity + 876 ([1]; liver microsomal extract SD120): 2610 ± 102 nmol/mg/min | Loss in CE activity + 876 ([1]; liver microsomal extract SD120): 1885 nmol/mg/min | Loss in CE activity + 876 [%] ([1]; liver microsomal extract SD120): 41.9% | CE activity + 876 ([1]; liver microsomal extract SD123): 3874 ± 101 nmol/mg/min | Loss in CE activity + 876 ([1]; liver microsomal extract SD123): 2071 nmol/mg/min | Loss in CE activity + 876 [%] ([1]; liver microsomal extract SD123): 34.8% | CE activity + 876 ([1]; liver microsomal extract SD124): 1997 ± 189 nmol/mg/min | Loss in CE activity + 876 ([1]; liver microsomal extract SD124): 1411 nmol/mg/min | Loss in CE activity + 876 [%] ([1]; liver microsomal extract SD124): 41.4% | CE activity + 876 ([1]; liver microsomal extract SD128): 4144 ± 401 nmol/mg/min | Loss in CE activity + 876 ([1]; liver microsomal extract SD128): 2169 nmol/mg/min | Loss in CE activity + 876 [%] ([1]; liver microsomal extract SD128): 34.4% | CE activity + 876 ([1]; liver microsomal extract SD132): 5018 ± 209 nmol/mg/min | Loss in CE activity + 876 ([1]; liver microsomal extract SD132): 3176 nmol/mg/min | Loss in CE activity + 876 [%] ([1]; liver microsomal extract SD132): 38.8% | CE activity + 876 ([1]; liver microsomal extract SD134): 345 ± 28 nmol/mg/min | Loss in CE activity + 876 ([1]; liver microsomal extract SD134): 197 nmol/mg/min | Loss in CE activity + 876 [%] ([1]; liver microsomal extract SD134): 36.4% | CE activity + 876 ([1]; liver microsomal extract SD136): 1719 ± 243 nmol/mg/min | Loss in CE activity + 876 ([1]; liver microsomal extract SD136): 1477 nmol/mg/min | Loss in CE activity + 876 [%] ([1]; liver microsomal extract SD136): 46.2% | CPT-11 hydrolysis + 876 ([2]; liver microsomal extract HG03): 29.6 ± 0.64 pmol/mg/h | Loss in CPT-11 hydrolysis + 876 ([2]; liver microsomal extract HG03): 14.7 pmol/mg/h | Loss in CPT-11 hydrolysis + 876 [%] ([2]; liver microsomal extract HG03): 33.1% | CPT-11 hydrolysis + 876 ([2]; liver microsomal extract HG74): 25.8 ± 1.1 pmol/mg/h | Loss in CPT-11 hydrolysis + 876 ([2]; liver microsomal extract HG74): 14.1 pmol/mg/h | Loss in CPT-11 hydrolysis + 876 [%] ([2]; liver microsomal extract HG74): 35.3% | CPT-11 hydrolysis + 876 ([2]; liver microsomal extract HG93): 18.2 ± 0.42 pmol/mg/h | Loss in CPT-11 hydrolysis + 876 ([2]; liver microsomal extract HG93): 12.4 pmol/mg/h | Loss in CPT-11 hydrolysis + 876 [%] ([2]; liver microsomal extract HG93): 40.5% | CPT-11 hydrolysis + 876 ([2]; liver microsomal extract HG95): 16.2 ± 0.21 pmol/mg/h | Loss in CPT-11 hydrolysis + 876 ([2]; liver microsomal extract HG95): 8.30 pmol/mg/h | Loss in CPT-11 hydrolysis + 876 [%] ([2]; liver microsomal extract HG95): 33.9% | CPT-11 hydrolysis + 876 ([2]; liver microsomal extract HG103): 19.4 ± 0.14 pmol/mg/h | Loss in CPT-11 hydrolysis + 876 ([2]; liver microsomal extract HG103): 13.2 pmol/mg/h | Loss in CPT-11 hydrolysis + 876 [%] ([2]; liver microsomal extract HG103): 40.1% | CPT-11 hydrolysis + 876 ([2]; liver microsomal extract HH13): 18.5 ± 0.14 pmol/mg/h | Loss in CPT-11 hydrolysis + 876 ([2]; liver microsomal extract HH13): 15.4 pmol/mg/h | Loss in CPT-11 hydrolysis + 876 [%] ([2]; liver microsomal extract HH13): 45.4% | CPT-11 hydrolysis + 876 ([2]; liver microsomal extract HH61): 13.4 ± 0.07 pmol/mg/h | Loss in CPT-11 hydrolysis + 876 ([2]; liver microsomal extract HH61): 8.80 pmol/mg/h | Loss in CPT-11 hydrolysis + 876 [%] ([2]; liver microsomal extract HH61): 39.7% | CPT-11 hydrolysis + 876 ([2]; liver microsomal extract HH74): 7.14 ± 0.23 pmol/mg/h | Loss in CPT-11 hydrolysis + 876 ([2]; liver microsomal extract HH74): 8.22 pmol/mg/h | Loss in CPT-11 hydrolysis + 876 [%] ([2]; liver microsomal extract HH74): 53.5% | CPT-11 hydrolysis + 876 ([2]; liver microsomal extract HK37): 17.0 ± 0.57 pmol/mg/h | Loss in CPT-11 hydrolysis + 876 ([2]; liver microsomal extract HK37): 18.4 pmol/mg/h | Loss in CPT-11 hydrolysis + 876 [%] ([2]; liver microsomal extract HK37): 51.9% | CPT-11 hydrolysis + 876 ([2]; liver microsomal extract SD003): 34.2 ± 0.92 pmol/mg/h | Loss in CPT-11 hydrolysis + 876 ([2]; liver microsomal extract SD003): 20.5 pmol/mg/h | Loss in CPT-11 hydrolysis + 876 [%] ([2]; liver microsomal extract SD003): 37.5% | CPT-11 hydrolysis + 876 ([2]; liver microsomal extract SD004): 19.3 ± 1.0 pmol/mg/h | Loss in CPT-11 hydrolysis + 876 ([2]; liver microsomal extract SD004): 14.6 pmol/mg/h | Loss in CPT-11 hydrolysis + 876 [%] ([2]; liver microsomal extract SD004): 43.0% | CPT-11 hydrolysis + 876 ([2]; liver microsomal extract SD104): 13.7 ± 0.07 pmol/mg/h | Loss in CPT-11 hydrolysis + 876 ([2]; liver microsomal extract SD104): 5.80 pmol/mg/h | Loss in CPT-11 hydrolysis + 876 [%] ([2]; liver microsomal extract SD104): 29.8% | CPT-11 hydrolysis + 876 ([2]; liver microsomal extract SD120): 18.5 ± 0.14 pmol/mg/h | CPT-11 hydrolysis + 876 ([2]; liver microsomal extract SD123): 17 ± 0.14 pmol/mg/h | Loss in CPT-11 hydrolysis + 876 ([2]; liver microsomal extract SD123): 13.0 pmol/mg/h | Loss in CPT-11 hydrolysis + 876 [%] ([2]; liver microsomal extract SD123): 43.2% | CPT-11 hydrolysis + 876 ([2]; liver microsomal extract SD124): 15.8 ± 0.28 pmol/mg/h | Loss in CPT-11 hydrolysis + 876 ([2]; liver microsomal extract SD124): 11.3 pmol/mg/h | Loss in CPT-11 hydrolysis + 876 [%] ([2]; liver microsomal extract SD124): 41.7% | CPT-11 hydrolysis + 876 ([2]; liver microsomal extract SD128): 16.5 ± 0.35 pmol/mg/h | Loss in CPT-11 hydrolysis + 876 ([2]; liver microsomal extract SD128): 13.1 pmol/mg/h | Loss in CPT-11 hydrolysis + 876 [%] ([2]; liver microsomal extract SD128): 44.3% | CPT-11 hydrolysis + 876 ([2]; liver microsomal extract SD132): 14.1 ± 0.50 pmol/mg/h | Loss in CPT-11 hydrolysis + 876 ([2]; liver microsomal extract SD132): 12.6 pmol/mg/h | Loss in CPT-11 hydrolysis + 876 [%] ([2]; liver microsomal extract SD132): 47.2% | CPT-11 hydrolysis + 876 ([2]; liver microsomal extract SD134): 8.49 ± 0.18 pmol/mg/h | Loss in CPT-11 hydrolysis + 876 ([2]; liver microsomal extract SD134): 8.96 pmol/mg/h | Loss in CPT-11 hydrolysis + 876 [%] ([2]; liver microsomal extract SD134): 51.3% | CPT-11 hydrolysis + 876 ([2]; liver microsomal extract SD136): 33.6 ± 0.64 pmol/mg/h | Loss in CPT-11 hydrolysis + 876 ([2]; liver microsomal extract SD136): 21.8 pmol/mg/h | Loss in CPT-11 hydrolysis + 876 [%] ([2]; liver microsomal extract SD136): 39.3% | effect on CPT-11 activation in liver microsomal samples ([2]; selective hiCE inhibitor 876): unable to reduce the levels of CPT-11 activation in liver microsomal samples to zero

Source: publication PMC2991631 (Biochemical pharmacology, 2010)
